Measurements as given in patent US6495557B1, “Condensed thienopyrimidines with phosphodiesterase-v inhibiting action” (Merck Patent Gesellschaft mit beschraenkter Haftung, priority 1998, dated 2002).

| melting point [°C] | SMILES |
| --- | --- |
| 203 to 204 | COC(=O)c1ccc(-c2nc(NCc3ccc(OC)c(Cl)c3)c3c(n2)sc2ccccc23)cc1 [Example 3, methyl 4-[4-(3-chloro-4-methoxybenzylamino)-[1]benzothieno[2,3-d]pyrimidin-2-yl]benzoate] |
| 218 | COc1ccc(CNc2nc(CCC(=O)O)nc3sc4ccccc4c23)cc1Cl [Example 2, 3-[4-(3-chloro-4-methoxybenzylamino)benzothieno[2,3-d]pyrimidin-2-yl]propionic acid] |
